Where a name gives a salt, the structure may show the parent alone.

Here are results for 1 compound from patent publication EP2607478A1, “Phenanthroline treated MSC” (Universiteit Twente, priority 2011, dated 2013).

The assay relates to MSCs. The experiment in a line: Gene expression analysis by real-time qPCR in treated MSCs. It counts as cell-based, Human. As to conditions: primary MSCs, 1 nM, 10 nM and 1 uM, 2 days, qPCR (Figure 7). How it is done: MSCs were seeded in triplicate in 6-well plates at 5000 cells/cm^2 and allowed to attach for 10-15 hours in proliferation medium. Upon reaching near confluency, cells were treated as described above. After 2 days of treatment and 2 subsequent days of incubation with fresh medium, cells were lysed immediately with TRIzol. RNA was isolated using a Bioke RNA II nucleospin RNA isolation kit (Machery Nagel) and RNA concentrations were measured using an ND100 spectrophotometer (Nanodrop technologies, USA). cDNA was synthesized from 100 ng of RNA, using iScript (BioRad) according to the manufacturer's protocol. For qualitative PCR, a master mix, containing distilled water, forward primer, reverse primer (Sigma Genosys), BSA, and SYBR green I mix (all from Invitrogen) was prepared. Real-time qPCR was performed in a Light-Cycler (Roche). Light-Cycler data was analyzed using the fit points method of Light-Cycler software. The baseline was set at the lower log-linear part above baseline noise and the crossing […] (Ct value) was determined. Ct values were normalized to the 18S housekeeping gene and delta Ct (Ct, control ― Ct, sample) was used to calculate the upregulation in gene expression (53).
On the technique in general: Quantitative PCR measures a nucleic acid by following its amplification.

As to `CCN(CC)CCCC(C)Nc1c2ccc(Cl)cc2nc2ccc(OC)cc12` (stereo not shown) [Quinacrine hydrochloride], the VEGF gene expression entry was “does not affect VEGF gene expression”.
